{"source": "patent US20160296722A1", "about": "“METHOD OF TREATING DEPRESSION” (Korea Bio Medical Science Institute, priority 2015, published 2016)", "key": {"BDNF": {"test_system": "BDNF", "experiment": "BDNF expression in brain, Western blot", "format": "in vivo, mice", "conditions": "mouse brain after FST, 10 mg/kg orally once daily for 3 weeks, versus untreated control group", "description": "(§1) Immediately after the FST, mice were sacrificed, brains were rapidly removed, and frozen in liquid nitrogen. Samples were dissected and homogenized in ice-cold buffer supplemented with 0.2 mM DTT, 0.5 mM sodium vanadate, and protease inhibitors. NaCl was then added to a final concentration of 0.45 M, and homogenates were centrifuged at 15,000×g for 30 min. Supernatants were collected and stored at −70° C. Samples were subjected to Western blot analysis for ERK, phosphorylated-ERK (PERK), BDNF, and GAPDH. Supernatant samples obtained as described above were heated at 95° C. for 5min and briefly cooled on ice. After centrifugation, 50 μg aliquots were resolved by 12% SDS-polyacrylamide gel electrophoresis. Proteins were then transferred to nitrocellulose membranes, which were blocked for 2 h with phosphate-buffered saline (PBS) containing Tween-20 (PBST) containing 6% bovine serum albumin. Membranes were incubated overnight at 4° C. with primary antibodies diluted 1:500 with PBST, and washed nine times for 10 min with PBST. For protein detection, blots were incubated with secondary antibodies conjugated peroxidase (1:5000) for 2 h. Finally, protein bands were visualized using an enhanced chemiluminescence kit (GE Healthcare, Piscataway, N.J., USA) according to the manufacturer's instructions."}, "DA": {"test_system": "DA", "experiment": "DA level in brain after FST (DA ELISA kit)", "format": "in vivo, mice", "conditions": "mouse brain after FST, 10 mg/kg orally once daily for 3 weeks, versus untreated control group, p<0.05", "experimental": "Supernatants were collected and stored at −70° C."}, "pERK": {"test_system": "pERK", "experiment": "ERK phosphorylation in brain, Western blot", "format": "in vivo, mice", "conditions": "mouse brain after FST, 10 mg/kg orally once daily for 3 weeks, p<0.05", "description": "as §1"}, "ICR mice": {"test_system": "ICR mice", "experiment": "Forced swimming test (FST), immobility time", "format": "in vivo", "conditions": "male ICR mice, mean±SEM", "description": "Male ICR mice (3 weeks old) weighing 10-12 g were purchased from the Dae-Han Experimental Animal Center (Daejeon, Republic of Korea), and subsequently maintained at the College of Korean Medicine, Kyung Hee University. Animals were housed 5-10% in as laminar air-flow room maintained at a temperature of 22±1° C. and a relative humidity of 55±10% under a 12:12 L/D cycle light (on at 7:00 h) throughout the study. Food and water were provided ad libitum. All manipulations were carried out between 9:00 and 16:00 h and no animal was used more than once.\nMice were exposed to JDS music daily for 3 weeks. All experiments were carried out in a quite environment other sounds.\nAfter measuring immobility times, 10 mice were allocated to each of the five study groups in an immobility time-matched manner. […] The FST was performed as the end of the 3 weeks administration period. During the 6 min FST, immobility times were measured as described by Porsolt et al. (1977). The FST apparatus consisted of two Plexiglas cylinders (height: 25 cm, diameter: 10 cm) placed side by side in a Makrolon cage filled with water at 23-25° C. […] Total duration of immobility, during the 4 min period from 2 to 6 min was recorded. […]"}}, "data": [{"smiles": "CNCCC(Oc1ccc(C(F)(F)F)cc1)c1ccccc1", "note": "(centres unmarked) [fluoxetine, Fluoxetine]", "values": [{"measurement": "BDNF level", "setting": "BDNF", "value": "significantly increased BDNF levels"}, {"measurement": "DA level in brain", "setting": "DA", "value": "significantly higher than in the untreated control group"}, {"measurement": "pERK level", "setting": "pERK", "value": "significantly elevated pERK levels"}, {"measurement": "Mean immobility time after the 3-week treatment period", "setting": "ICR mice; 10 mg/kg orally once daily for 3 weeks, untreated control 199.3±11.8 s, p<0.05", "value": "60.4 ± 14.3", "unit": "s"}, {"measurement": "Mean baseline immobility time", "setting": "ICR mice; baseline (0 day), before treatment", "value": "94.2 ± 23.9", "unit": "s"}]}]}
